Measurements from patent publication US10301288B2, “Kinase inhibitors” (Topivert Pharma Limited, priority 2013, dated 2019).

Columns and labels:
Syk = Syk (Homo sapiens (Human), UniProt P43405); test: Syk enzyme inhibition (FRET); format: biochemical
Summary of the method: (§1)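 Z-LYTE FRET peptide assay: c-Src (3000 ng/mL) or Syk (2000 ng/mL) preincubated 2 h at room temperature with compound (4–0.004 μg/mL working solutions). Reaction was 1 h with peptide (8 μM solution) and ATP (800 μM c-Src, 60 μM Syk solutions), followed by 1 h protease development. Phosphorylation was read as the coumarin/fluorescein emission ratio.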

[1] = Cryopreserved hepatocyte stability, Cynomolgus macaque; format: in vitro ADME; conditions: pooled cryopreserved hepatocytes, read-out: Mean intrinsic clearance
Protocol: Formulae Clint(tissue clearance) mL/min/kg=[0.693/t½ (min)]×[1/microsomal protein concentration mg/mL]×[mg microsomes/g liver]×[g liver/kg body weight] […] The incubations were performed at 37° C. with 100 μL, samples taken from the incubation, at 0, 10, 20, 45 and 90 minutes, and reactions terminated by addition of 100 μL of acetonitrile containing carbamazepine as analytical internal standard. […] Half-life values were calculated from the relationship T1/2 (min)=−0.693/λ • where λ was the slope of the Ln concentration vs time curve. • Standard compounds testosterone, midazolam and 4-methylumbelliferone are included in the assay design.
Clint(Tissue Clearance) mL/min/kg=[0.693/t½(min)]×[1/hepatocyte concentration (million cells/mL)]×[million cells/g liver]×[g liver/kg body weight] Clint(Hepatic clearance) mL/min/kg=hepatic blood flow×Clint/(hepatic blood flow+Clint) Hepatic extraction ratio(Eh)=Clint(Hepatic clearance) mL/min/kg/hepatic blood flow (mL/min/kg)

PBMCs [2] = test: (i) Cell mitosis assay in PBMCs; format: cell-based; conditions: Homo sapiens, PBMC, 5 μg/mL
Protocol: PBMCs from healthy subjects are separated from whole blood (Quintiles, London, UK) using a density gradient (Histopaque®-1077, Sigma-Aldrich, Poole, UK). The PBMCs (3 million cells per sample) are subsequently treated with 2% PHA (Sigma-Aldrich, Poole, UK) for 48 hr, followed by a 20 hr exposure to varying concentrations of test compounds. At 2 hr before collection, PBMCs are treated with demecolcine (0.1 μg/mL; Invitrogen, Paisley, UK) to arrest cells in metaphase. […] Fluorescence is observed using an ATTUNE flow cytometer (Invitrogen, Paisley, UK), gating for lymphocytes.

[3] = Hepatic microsomal stability, dog; format: in vitro ADME; conditions: pooled liver microsomes, read-out: Mean intrinsic clearance
Protocol: • Microsomal stability assays were performed with incubations of test compounds at 0.1 μM (n=2, final DMSO concentration 0.25%), and carried out using pooled human, […], rat and Cynomolgus macaque hepatic microsomes from Xenotech (Lots 1210153, 0810143 and 1110042, respectively) at 0.25 mg protein/mL in the presence of cofactor, NADPH. The incubations were performed at 37° C. with 100 μL aliquots taken from the incubation, at 0, 2, 5, 10 and 20 minutes (and, in the case of Cynomolgus macaque hepatic microsomes, 40 minutes) and reactions terminated by addition of 100 μL of acetonitrile containing carbamazepine as analytical internal standard. […] Half-life values were calculated from the relationship T1/2 (min)=−0.693/λ • where λ was the slope of the Ln concentration vs time curve. • The in vitro intrinsic clearance, Clint (mL/min/kg), was calculated and scaled to hepatic extraction ratios using the following scaling parameters and formulae.
Formulae Clint(tissue clearance) mL/min/kg=[0.693/t½ (min)]×[1/microsomal protein concentration mg/mL]×[mg microsomes/g liver]×[g liver/kg body weight] […] Half-life values were calculated from the relationship T1/2 (min)=−0.693/λ • where λ was the slope of the Ln concentration vs time curve. • Standard compounds testosterone, midazolam and 4-methylumbelliferone are included in the assay design.

HT29 cells = test: (d) IL-1β-induced IL-8 release in HT29 cells; format: cell-based; conditions: Homo sapiens, HT-29, read-out: IC50 for Inhibition of Cytokine Release, IL-8
Protocol: HT29 cells, a human colon adenocarcinoma cell line, are plated in a 96 well plate (24 hrs) and pre-treated with compounds at the desired concentration for 2 hours before addition of 5 ng/ml of IL-1β (Abeam) for 24 hours. Supernatants are harvested for IL-8 quantification by Sandwich ELISA (Duo-set, R&D System). The IC50 is determined from the dose response curve.

c-Src = c-Src (Homo sapiens (Human), UniProt P12931); test: c-Src enzyme inhibition (FRET); format: biochemical
Summary of the method: as §1

PBMCs [4] = test: (c) IL-2 and IFN gamma release in CD3/CD28 stimulated PBMC cells; format: cell-based; conditions: Homo sapiens, read-out: IC50 for Inhibition of Cytokine Release, IFNγ
Protocol: PBMCs from healthy subjects are separated from whole blood using a density gradient (Lymphoprep, Axis-Shield Healthcare). Cells are added to a 96 well plate pre-coated with a mixture of CD3/CD28 monoclonal antibodies (0.3 ug/ml eBioscience and 3 ug/ml BD Pharmingen respectively). Compound at the desired concentration is then added to the wells and the plate left for 3 days under normal tissue culture conditions. […] The IC50 is determined from the dose response curve.

[5] = Plasma pharmacokinetics in beagle dogs; format: in vivo, male beagle dogs; conditions: Dog
Protocol: Blood samples (approximately 1.5 mL) were collected from jugular vein such that the samples were obtained at pre-dose, 0.25, 0.5, 1, 2, 4, 6, 8, and 24 hr (p.o.) and pre-dose, 0.08, 0.25, 0.5, 1, 2, 4, 8, 12, 24 and 32 hr (i.v.) post dose. The blood samples were collected from a set of three dogs at each time point in labelled micro centrifuge tube containing K2EDTA as anticoagulant. Plasma samples were separated by centrifugation at 2500 g for 10 min of whole blood and stored below −70° C. until bioanalysis. All samples were processed for analysis by protein precipitation using acetonitrile and analyzed with LC-MS/MS method (LLOQ=0.50 ng/mL). Pharmacokinetic parameters were calculated using the non-compartmental analysis tool of Phoenix WinNonlin® (Version 6.3).

[6] = male, beagle, plasma, 0.05 mg/kg intravenous

Chain of c-Src (P12931 whole entry, looked up): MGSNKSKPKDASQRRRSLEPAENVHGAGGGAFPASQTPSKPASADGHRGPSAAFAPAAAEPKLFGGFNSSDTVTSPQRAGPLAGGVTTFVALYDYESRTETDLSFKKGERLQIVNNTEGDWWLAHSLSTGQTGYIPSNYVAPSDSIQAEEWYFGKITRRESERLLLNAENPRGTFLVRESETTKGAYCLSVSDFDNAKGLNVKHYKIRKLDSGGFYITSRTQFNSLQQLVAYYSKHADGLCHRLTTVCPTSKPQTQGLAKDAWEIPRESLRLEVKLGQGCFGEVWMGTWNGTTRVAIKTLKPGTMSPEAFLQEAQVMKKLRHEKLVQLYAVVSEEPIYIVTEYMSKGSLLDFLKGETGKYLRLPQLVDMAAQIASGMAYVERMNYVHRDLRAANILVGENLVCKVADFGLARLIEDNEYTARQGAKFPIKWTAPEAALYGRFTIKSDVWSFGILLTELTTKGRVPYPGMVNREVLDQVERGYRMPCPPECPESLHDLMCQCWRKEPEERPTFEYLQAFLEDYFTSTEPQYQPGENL

- IC50 (Syk): 50 nM
- hepatocyte CLint at 0.1 μM [1]: 43 µL/min/1e6 cells
- microsomal CLint at 0.1 μM [3]: > 554 µL/min/mg
- IC50 (HT29 cells): 3.3 nM
- IC50 (c-Src): 11 nM
- Fpo ([5]; 1 mg/kg p.o., Plasma): 0%
- AUC(0-inf) [5, 6]: 223 ± 92 ng·h/mL
- AUC(0-t) [5, 6]: 218 ± 90 ng·h/mL
- C0 [5, 6]: 1370 ng/mL
- Vd [5, 6]: 0.2 ± 0.1 L/kg
- clearance [5, 6]: 4.1 ± 1.4 mL/min/kg
- half-life [5, 6]: 1.9 ± 0.4 h
Structure (SMILES): C#Cc1cc(Nc2nccc(Oc3ccc(NC(=O)Nc4cc(C(C)(C)C)nn4-c4ccc(C)cc4)c4ccccc34)n2)cc(C(=O)NCCOCCOCCOC)c1 [Example 2, 3-((4-((4-(3-(3-(tert-Butyl)-1-(p-tolyl)-1H-pyrazol-5-yl)ureido)naphthalen-1-yl)oxy)pyrimidin-2-yl)amino)-5-ethynyl-N-(2-(2-(2-methoxyethoxy)ethoxy)ethyl)-benzamide]
- inhibition at 5 µg/mL (PBMCs [2]): 18.7%
- IC50 (PBMCs [4]): 2.5 nM
